How the values were obtained:
[1] = target: T1, STAT6 (Homo sapiens, UniProt P42226); experiment: Stat6 Degrader Assay (HiBiT based, HeLa LgBiT clone 4.14); format: cell-based; settings: HeLa LgBiT clone 4.14 HiBiT-STAT6, 4-24 h incubation; values given for compounds with >80% Emax; geometric mean; read-out: STAT6 degradation DC50
T1 construct: These cells express endogenous STAT6; host or cells: HeLa LgBiT clone 4.14
T1 sequence (P42226 1-847): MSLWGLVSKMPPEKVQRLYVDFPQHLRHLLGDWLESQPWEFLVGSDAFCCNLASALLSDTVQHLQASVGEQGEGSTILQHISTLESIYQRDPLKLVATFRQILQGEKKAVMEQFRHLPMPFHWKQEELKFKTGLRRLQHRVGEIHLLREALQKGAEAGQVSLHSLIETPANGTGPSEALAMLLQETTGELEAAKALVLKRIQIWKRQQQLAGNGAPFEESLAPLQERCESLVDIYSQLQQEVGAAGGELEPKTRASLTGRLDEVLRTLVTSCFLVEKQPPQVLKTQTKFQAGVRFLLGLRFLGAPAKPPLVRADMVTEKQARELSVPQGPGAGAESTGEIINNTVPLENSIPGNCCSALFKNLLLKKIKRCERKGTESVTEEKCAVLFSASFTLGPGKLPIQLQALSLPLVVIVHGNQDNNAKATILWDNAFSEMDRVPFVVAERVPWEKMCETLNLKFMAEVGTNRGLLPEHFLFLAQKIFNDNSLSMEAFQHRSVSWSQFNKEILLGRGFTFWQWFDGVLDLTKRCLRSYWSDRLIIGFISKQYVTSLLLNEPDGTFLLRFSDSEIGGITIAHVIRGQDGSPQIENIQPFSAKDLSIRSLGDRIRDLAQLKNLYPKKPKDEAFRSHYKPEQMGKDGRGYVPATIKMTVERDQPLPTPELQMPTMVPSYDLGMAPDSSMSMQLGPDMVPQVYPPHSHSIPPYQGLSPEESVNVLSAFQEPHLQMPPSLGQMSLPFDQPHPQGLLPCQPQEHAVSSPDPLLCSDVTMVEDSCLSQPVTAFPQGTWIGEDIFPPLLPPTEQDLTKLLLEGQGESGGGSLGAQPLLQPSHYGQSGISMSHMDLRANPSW
Procedure, shortened: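 Luminescence from HiBiT-STAT6 complementing stably expressed LgBiT in HeLa clone 4.14 reports remaining STAT6 protein. Cells (5000/well) exposed to compound for 4-24 h at 37° C; read 0.5 h after Nano-Glo addition. 100% degradation window set with 50 μM terfenadine; percent degradation plotted against concentration.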

[2] = tested on: Eotaxin-3 release in human whole blood stimulated with IL-4; experiment: Human Whole Blood Eotaxin-3 Assay (IL-4 stimulated eotaxin-3 release); format: cell-based; settings: IL-4 stimulation, 48 h, values given for compounds with >80% Emax, geometric mean
Procedure, shortened: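 Eotaxin-3 (CCL26) release measured by MSD kit in plasma supernatant after 48 h IL-4 stimulation ([…]) of human whole blood. Compounds added in triplicate 4-fold dilutions 2 h before stimulation; 0.5% DMSO final, 37° C, 5% CO2.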

Structure (SMILES) | DC50 [1] [nM] | EC50 [2] [nM]
C[C@H]1CN(Cc2ccc3c(c2)C2(CC2)C(=O)N3C2CCC(=O)NC2=O)CCN1CC1CCN(C(=O)c2cc(F)c(C3CCN(Cc4cc5c(-n6cc(F)c(N)c(F)c6=O)ccnc5n4C)CC3)c(F)c2)CC1 (stereo partly drawn) [Example 3u96, 3-(5′-(((S)-4-((1-(4-(1-((4-(4-amino-3,5-difluoro-2-oxopyridin-1 (2H)-yl)-1-methyl-1H-pyrrolo[2,3-b]pyridin-2-yl)methyl)piperidin-4-yl)-3,5-difluorobenzoyl)piperidin-4-yl)methyl)-3-methylpiperazin-1-yl)methyl)-2′-oxospiro[cyclopropane-1,3′-indolin]-1′-yl)piperidine-2,6-dione] | 4.1 | 1
CNc1ccn(-c2ccnc3c2cc(CN2CC=C(c4c(F)cc(C(=O)N5CCC(CN6CCN(Cc7ccc8c(c7)C(C)(C)C(=O)N8[C@H]7CCC(=O)NC7=O)C[C@@H]6C)CC5)cc4F)CC2)n3C)c(=O)c1 (single isomer, unassigned) [Example 3u46] | 5.8 | 10.1
CNc1cc(=O)n(-c2ccnc3c2cc([C@H](C)N2CC=C(c4c(C)cc(C(=O)N5CCC(CN6CCN(Cc7ccc8c(c7)C(C)(C)C(=O)N8[C@@H]7CCC(=O)NC7=O)CC6)CC5)cc4F)CC2)n3C)cc1F (single isomer, unassigned) [Example 3u89] | 4.1 | 43.7
C[C@H]1CN(Cc2ccc3c(c2)n(C2CC2)c(=O)n3C2CCC(=O)NC2=O)CCN1CC1CCN(C(=O)c2cc(F)c(C3CCN([C@@H](C)c4cc5c(-n6ccc7c(c6=O)CCN7)ccnc5n4C)CC3)c(F)c2)CC1 (stereo partly drawn) [Example 3u196, 3-(3-cyclopropyl-5-(((S)-4-((1-(3,5-difluoro-4-(1-((S)-1-(1-methyl-4-(4-oxo-1,2,3,4-tetrahydro-5H-pyrrolo[3,2-c]pyridin-5-yl)-1H-pyrrolo[2,3-b]pyridin-2-yl)ethyl)piperidin-4-yl)benzoyl)-piperidin-4-yl)methyl)-3-methylpiperazin-1-yl)methyl)-2-oxo-2,3-dihydro-1H-benzo[d]imidazol-1-yl)-piperidine-2,6-dione] | 0.3 | 0.5
CNc1ccn(-c2ccnc3c2cc(CN2CCC(c4c(F)cc(C(=O)N5CCC(CN6CCN(Cc7ccc8c(c7)n(C)c(=O)n8[C@H]7CCC(=O)NC7=O)CC6)CC5)cc4F)CC2)n3C)c(=O)c1 (single isomer, unassigned) [Example 3u30] | 2.2 | 1.6
CNc1ccn(-c2ccnc3c2cc([C@H](C)N2CC=C(c4c(C)cc(C(=O)N5CCC(CN6CCN(c7ccc8c(c7)C(C)(C)C(=O)N8[C@@H]7CCC(=O)NC7=O)CC6)CC5)cc4F)CC2)n3C)c(=O)c1 (single isomer, unassigned) [Example 3u281] | 4 | 4.2
CNc1cc(=O)n(-c2ccnc3c2cc([C@H](C)N2CC=C(c4c(C)cc(C(=O)N5CCC(CN6CCN(Cc7ccc8c(c7)n(C)c(=O)n8C7CCC(=O)NC7=O)C[C@@H]6C)CC5)cc4F)CC2)n3C)cc1F (stereo partly drawn) [Example 3u90, 3-(5-(((S)-4-((1-(3-fluoro-4-(1-((S)-1-(4-(5-fluoro-4-(methylamino)-2-oxopyridin-1 (2H)-yl)-1-methyl-1H-pyrrolo[2,3-b]pyridin-2-yl)ethyl)-1,2,3,6-tetrahydropyridin-4-yl)-5-methylbenzoyl)piperidin-4-yl)methyl)-3-methylpiperazin-1-yl)methyl)-3-methyl-2-oxo-2,3-dihydro-1H-benzo[d]imidazol-1-yl)piperidine-2,6-dione] | 0.3 | 0.9
CNc1ccn(-c2ccnc3c2cc(CN2CCC(c4c(C)cc(C(=O)N5CCC(CN6CCN(Cc7ccc8c(c7)n(C)c(=O)n8[C@H]7CCC(=O)NC7=O)CC6)CC5)cc4F)CC2)n3C)c(=O)c1 (single isomer, unassigned) [Example 3u160] | 10.9 | 27.5
CNc1cc(=O)n(-c2ccnc3c2cc([C@H](C)N2CC=C(c4c(C)cc(C(=O)N5CCC(CN6CCN(c7ccc8c(c7)n(C)c(=O)n8[C@H]7CCC(=O)NC7=O)CC6)CC5)cc4F)CC2)n3C)cc1F (single isomer, unassigned) [Example 3u296] | 2.7 | 5.8
C[C@H]1CN(Cc2ccc3c(c2)n(C2CC2)c(=O)n3[C@@H]2CCC(=O)NC2=O)CCN1CC1CCN(C(=O)c2cc(F)c(C3CCN(Cc4cc5c(-n6ccc7c(c6=O)CCN7)ccnc5n4C)CC3)c(F)c2)CC1 (single isomer, unassigned) [Example 3u108] | 3.4 | 4.1
C[C@H]1CN(Cc2ccc3c(c2)C2(CCC2)C(=O)N3C2CCC(=O)NC2=O)CCN1CC1CCN(C(=O)c2cc(F)c(C3CCN(Cc4cc5c(-n6ccc7c(c6=O)CCN7)ccnc5n4C)CC3)c(F)c2)CC1 (stereo partly drawn) [Example 3u101, 3-(5′-(((S)-4-((1-(3,5-difluoro-4-(1-((1-methyl-4-(4-oxo-1,2,3,4-tetrahydro-5H-pyrrolo[3,2-c]pyridin-5-yl)-1H-pyrrolo[2,3-b]pyridin-2-yl)methyl)piperidin-4-yl)benzoyl)piperidin-4-yl)methyl)-3-methylpiperazin-1-yl)methyl)-2′-oxospiro[cyclobutane-1,3′-indolin]-1′-yl)piperidine-2,6-dione] | 2.3 | 2.4
CNc1cc(=O)n(-c2ccnc3c2cc(CN2CCC(c4c(F)cc(C(=O)N5CCC(CN6CCN(Cc7ccc8c(c7)n(C)c(=O)n8[C@@H]7CCC(=O)NC7=O)CC6)CC5)cc4F)CC2)n3C)cc1F (single isomer, unassigned) [Example 3u28] | 2.9 | 24.3
CNc1cc(=O)n(-c2ccnc3c2cc(CN2CCC(c4c(F)cc(C(=O)N5CCC(CN6CCN(Cc7ccc8c(c7)C(C)(C)C(=O)N8[C@@H]7CCC(=O)NC7=O)CC6)CC5)cc4F)CC2)n3C)cc1F (single isomer, unassigned) [Example 3u59] | 11.4 | 25.8
CNc1ccn(-c2ccnc3c2cc([C@H](C)N2CCC(c4ccc(C(=O)N5CCC(CN6CCN(Cc7ccc8c(c7)C7(CC7)C(=O)N8[C@H]7CCC(=O)NC7=O)C[C@@H]6C)CC5)cc4)CC2)n3C)c(=O)c1 (single isomer, unassigned) [Example 3u6] | 0.7 | 19.3
CNc1ccn(-c2ccnc3c2cc([C@H](C)N2CCC(c4ccc(C(=O)N5CCC(CN6CCN(Cc7ccc8c(c7)C(C)(C)C(=O)N8C7CCC(=O)NC7=O)C[C@@H]6C)CC5)cc4)CC2)n3C)c(=O)c1 (stereo partly drawn) [Example 3u187, 3-(3,3-dimethyl-5-(((S)-3-methyl-4-((1-(4-(1-((S)-1-(1-methyl-4-(4-(methylamino)-2-oxopyridin-1 (2H)-yl)-1H-pyrrolo[2,3-b]pyridin-2-yl)ethyl)piperidin-4-yl)benzoyl)piperidin-4-yl)-methyl)piperazin-1-yl)methyl)-2-oxoindolin-1-yl)piperidine-2,6-dione] | 3.1 | 4.2
CNc1ccn(-c2ccnc3c2cc([C@H](C)N2CC=C(c4c(C)cc(C(=O)N(C)c5ccc(C6CCN(Cc7ccc8c(c7)n(C)c(=O)n8C7CCC(=O)NC7=O)CC6)cc5)cc4F)CC2)n3C)c(=O)c1 (stereo partly drawn) [Example 3u225, N-(4-(1-((1-(2,6-dioxopiperidin-3-yl)-3-methyl-2-oxo-2,3-dihydro-1H-benzo[d]-imidazol-5-yl)methyl)piperidin-4-yl)phenyl)-3-fluoro-N,5-dimethyl-4-(1-((S)-1-(1-methyl-4-(4-(methyl-amino)-2-oxopyridin-1 (2H)-yl)-1H-pyrrolo[2,3-b]pyridin-2-yl)ethyl)-1,2,3,6-tetrahydropyridin-4-yl)-benzamide] | 0.1 | 0.3

— patent US20250320206A1, “STAT6 DEGRADERS” (Gilead Sciences, Inc., priority 2024, published 2025)
